Numbers after ± are expanded uncertainties.
Details: 351.21 K; Liquid

vapor or sublimation pressure: 100 ± 0.9 kPa
Structure (SMILES): CCO [ethanol]
